The source of these data is patent publication EP4813464A2, “PEPTIDE FOR PREVENTING AND TREATING FIBROSIS” (priority 2021, dated 2022).

Assay [1] relates to animal model in which lung disease was induced with bleomycin. The assay can be described thus: Bleomycin-induced lung disease model, lung histology. In kind it is in vivo, C57BL/6J mice. Conditions: day 22; peptides 30 mg/kg subcutaneously three times a week, nintedanib 100 mg/kg orally daily; peptides compared to NT group and nintedanib group; FIG. 8c.
Procedure: C57BL/6J mice (male, 7 weeks old) were purchased from Charles River. Mice were anesthetized by intraperitoneal administration of a mixture of Imalgene (ketamine, 100 mg/kg)/Rompun (xylazine, 20 mg/kg), and a total of 50 µl of bleomycin sulfate (1.45 mg/kg, MBcell, CA, USA) was injected intratracheally once, and saline was injected intratracheally in the normal group (day 0). On day 7, mice were divided into groups, each consisting of eight. PBS (NT), SEQ ID NO: 1 (30 mg/kg), and SEQ ID NO: 2 (30 mg/kg) were administered subcutaneously three times a week, and nintedanib (Fluorochem Ref = 050741, 100 mg/kg) was administered orally daily. Each of the peptides of SEQ ID NO: 1 and SEQ ID NO: 2 was administered after dissolution in water for injection, and nintedanib was administered after mixing with water containing 0.5% hydroxyethylcellulose (Sigma; lot BCBV5033) and 0.01% Tween 80 (Sigma; lot BCBR6211V). While administering the drug for 21 days, body weight was measured every 2 days, and whether there were other clinical symptoms were checked.
After mice were sacrificed with isoflurane on day 22, lung tissue was excised therefrom and histological analysis was performed. […]
In order to quantify the fibrotic change, the area of the red (fibrotic portion) was quantified in the sample stained with Sirius Red.
Assay [2] is classed as in vivo, C57BL/6J mice. The following applies: bleomycin mice, treatment from day 7, day 0 to day 22; peptides 30 mg/kg subcutaneously three times a week, nintedanib 100 mg/kg orally daily; FIG. 8b. The source says:
Based on results of measuring the change in body weight from day 0 to day 22, the body weight decreased until day 7 after administration of bleomycin, but increased after treatment with the peptide according to the present invention and nintedanib (FIG. 8b), and weight loss due to toxicity of the peptide according to the present invention and nintedanib was not observed.

In the case of `COC(=O)c1ccc2c(c1)NC(=O)/C2=C(\Nc1ccc(N(C)C(=O)CN2CCN(C)CC2)cc1)c1ccccc1` [nintedanib], in assay [1], the “fibrous deposition in the lungs (Sirius Red and hematoxylin/phloxine staining, microscopy)” value is given as “some therapeutic effect, but a lot of deposited fibrous tissue was still observed”. The “change in body weight” value in assay [2] is recorded as “increased”.
